Experimental data from US9359367B2, “Tetrahydroquinazolinone derivatives as PARP inhibitors” (Lupin Limited, priority 2012, dated 2016).

These compounds were tested against T1, PARP1 (Homo sapiens, UniProt P09874) (assay: PARP1 Biochemical Assay (BPS Bioscience kit, chemiluminescence)). Details: histone-coated plate, biotinilated NAD+, 25° C. for 60 min, luminescence, read-out: PARP 1 inhibition IC50.
T1 construct: purchased BPS Bioscience
Procedure, shortened: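 Human PARP1 (25–75 ng/well) with activated DNA was incubated with compound on histone-coated wells. Biotinylated NAD+ was added and the reaction ran 60 min at 25 °C. Ribosylation was detected by streptavidin-HRP chemiluminescence, % inhibition was normalised to enzyme-free and uninhibited controls, and IC50 was fitted from % inhibition versus concentration.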

T1 sequence (P09874 whole entry): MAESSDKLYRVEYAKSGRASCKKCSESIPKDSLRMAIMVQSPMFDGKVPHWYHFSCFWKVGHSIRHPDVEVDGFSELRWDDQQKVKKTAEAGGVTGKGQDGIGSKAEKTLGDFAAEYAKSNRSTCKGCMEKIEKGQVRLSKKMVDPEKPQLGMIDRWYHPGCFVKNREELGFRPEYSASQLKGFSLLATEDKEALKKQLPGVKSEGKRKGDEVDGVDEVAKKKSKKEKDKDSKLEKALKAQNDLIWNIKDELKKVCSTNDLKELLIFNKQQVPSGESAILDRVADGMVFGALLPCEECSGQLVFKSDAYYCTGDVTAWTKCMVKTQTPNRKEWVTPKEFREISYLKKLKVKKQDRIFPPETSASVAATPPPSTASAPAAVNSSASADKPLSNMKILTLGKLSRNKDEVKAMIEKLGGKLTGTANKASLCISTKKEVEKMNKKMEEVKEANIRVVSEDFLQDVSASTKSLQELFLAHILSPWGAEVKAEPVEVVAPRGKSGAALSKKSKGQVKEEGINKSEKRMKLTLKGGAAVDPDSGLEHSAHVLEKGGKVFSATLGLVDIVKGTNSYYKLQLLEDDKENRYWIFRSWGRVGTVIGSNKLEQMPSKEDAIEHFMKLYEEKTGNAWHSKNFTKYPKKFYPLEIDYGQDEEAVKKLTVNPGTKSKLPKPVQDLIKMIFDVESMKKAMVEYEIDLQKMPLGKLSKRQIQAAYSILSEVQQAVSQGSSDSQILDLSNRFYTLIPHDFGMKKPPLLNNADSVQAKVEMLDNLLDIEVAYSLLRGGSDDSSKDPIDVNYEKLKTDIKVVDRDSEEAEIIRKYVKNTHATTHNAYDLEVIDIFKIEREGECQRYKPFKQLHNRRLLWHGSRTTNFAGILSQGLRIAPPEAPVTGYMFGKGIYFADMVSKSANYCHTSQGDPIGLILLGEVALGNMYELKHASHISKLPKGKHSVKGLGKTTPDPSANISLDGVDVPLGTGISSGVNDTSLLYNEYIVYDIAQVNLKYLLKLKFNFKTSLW

| SMILES | IC50 [nM] |
| --- | --- |
| Cc1csc(N2CCN([C@H]3C=C(c4nc5c(c(=O)[nH]4)CC4(CC5)CC4)CC3)CC2)n1 [Compound 102, (R)-2′-(3-(4-(4-methylthiazol-2-yl)piperazin-1-yl)cyclopent-1-en-1-yl)-7′,8′-dihydro-3′H-spiro[cyclopropane-1,6′-quinazolin]-4′(5′H)-one] | 501 to 5000 |
| CNC(=O)c1cnc(N2CCN([C@H]3C=C(c4nc5c(c(=O)[nH]4)CC4(CC5)CC4)CC3)CC2)c(Cl)c1 [Compound 103, (R)-5-chloro-N-methyl-6-(4-(3-(4′-oxo-4′,5′,7′,8′-tetrahydro-3′H-spiro[cyclopropane-1,6′-quinazolin]-2′-yl)cyclopent-2-en-1-yl)piperazin-1-yl)nicotinamide] | 1 to 500 |
| CNC(=O)c1cnc(N2CCN([C@H]3C=C(c4nc5c(c(=O)[nH]4)CC4(CC5)CC4)CC3)CC2)s1 [Compound 104, (R)—N-methyl-2-(4-(3-(4′-oxo-4′,5′,7′,8′-tetrahydro-3′H-spiro[cyclopropane-1,6′-quinazolin]-2′-yl)cyclopent-2-en-1-yl)piperazin-1-yl)thiazole-5-carboxamide] | 1 to 500 |
| CNC(=O)c1csc(N2CCN([C@H]3C=C(c4nc5c(c(=O)[nH]4)CC4(CC5)CC4)CC3)CC2)n1 [Compound 105, (R)—N-methyl-2-(4-(3-(4′-oxo-4′,5′,7′,8′-tetrahydro-3′H-spiro[cyclopropane-1,6′-quinazolin]-2′-yl)cyclopent-2-en-1-yl)piperazin-1-yl)thiazole-4-carboxamide] | 501 to 5000 |
| O=c1[nH]c(C2=C[C@H](N3CCN(c4cc(F)ccc4F)CC3)CC2)nc2c1CC1(CC2)CC1 [Compound 106, (R)-2′-(3-(4-(2,5-difluorophenyl)piperazin-1-yl)cyclopent-1-en-1-yl)-7′,8′-dihydro-3′H-spiro[cyclopropane-1,6′-quinazolin]-4′(5′H)-one] | 1 to 500 |
| O=c1[nH]c(C2=C[C@H](N3CCN(c4ncc(Cl)cc4Cl)CC3)CC2)nc2c1CC1(CC2)CC1 [Compound 107, (R)-2′-(3-(4-(3,5-dichloropyridin-2-yl)piperazin-1-yl)cyclopent-1-en-1-yl)-7′,8′-dihydro-3′H-spiro[cyclopropane-1,6′-quinazolin]-4′(5′H)-one] | 1 to 500 |
| Cc1c(F)cccc1N1CCN([C@H]2C=C(c3nc4c(c(=O)[nH]3)CC3(CC4)CC3)CC2)CC1 [Compound 108, (R)-2′-(3-(4-(3-fluoro-2-methylphenyl)piperazin-1-yl)cyclopent-1-en-1-yl)-7′,8′-dihydro-3′H-spiro[cyclopropane-1,6′-quinazolin]-4′(5′H)-one] | 1 to 500 |
| O=c1[nH]c(C2=C[C@H](N3CCN(c4cc(F)cc(F)c4)CC3)CC2)nc2c1CC1(CC2)CC1 [Compound 109, (R)-2′-(3-(4-(3,5-difluorophenyl)piperazin-1-yl)cyclopent-1-en-1-yl)-7′,8′-dihydro-3′H-spiro[cyclopropane-1,6′-quinazolin]-4′(5′H)-one] | 1 to 500 |
| O=c1[nH]c(C2=C[C@H](N3CCN(c4c(F)cccc4F)CC3)CC2)nc2c1CC1(CC2)CC1 [Compound 110, (R)-2′-(3-(4-(2,6-difluorophenyl)piperazin-1-yl)cyclopent-1-en-1-yl)-7′,8′-dihydro-3′H-spiro[cyclopropane-1,6′-quinazolin]-4′(5′H)-one] | 501 to 5000 |
| N#Cc1ccc(N2CCN([C@H]3C=C(c4nc5c(c(=O)[nH]4)CC4(CC5)CC4)CC3)CC2)c(F)c1 [Compound 111, (R)-3-fluoro-4-(4-(3-(4′-oxo-4′,5′,7′,8′-tetrahydro-3′H-spiro[cyclopropane-1,6′-quinazolin]-2′-yl)cyclopent-2-en-1-yl)piperazin-1-yl)benzonitrile] | 1 to 500 |
| CNC(=O)c1cnc(N2CCN([C@H]3C=C(c4nc5c(c(=O)[nH]4)CC4(CC5)CC4)CC3)CC2)c(F)c1 [Compound 112, (R)-5-fluoro-N-methyl-6-(4-(3-(4′-oxo-4′,5′,7′,8′-tetrahydro-3′H-spiro[cyclopropane-1,6′-quinazolin]-2′-yl)cyclopent-2-en-1-yl)piperazin-1-yl)nicotinamide] | 501 to 5000 |
| Cc1cnc(N2CCN([C@H]3C=C(c4nc5c(c(=O)[nH]4)CC4(CC5)CC4)CC3)CC2)s1 [Compound 113, (R)-2′-(3-(4-(5-methylthiazol-2-yl)piperazin-1-yl)cyclopent-1-en-1-yl)-7′,8′-dihydro-3′H-spiro[cyclopropane-1,6′-quinazolin]-4′(5′H)-one] | 1 to 500 |
| COc1cc(N2CCN([C@H]3C=C(c4nc5c(c(=O)[nH]4)CC4(CC5)CC4)CC3)CC2)ccc1F [Compound 114, (R)-2′-(3-(4-(4-fluoro-3-methoxyphenyl)piperazin-1-yl)cyclopent-1-en-1-yl)-7′,8′-dihydro-3′H-spiro[cyclopropane-1,6′-quinazolin]-4′(5′H)-one] | 1 to 500 |
| O=c1[nH]c(C2=C[C@H](N3CCN(c4cc(F)cc(Cl)c4)CC3)CC2)nc2c1CC1(CC2)CC1 [Compound 115, (R)-2′-(3-(4-(3-chloro-5-fluorophenyl)piperazin-1-yl)cyclopent-1-en-1-yl)-7′,8′-dihydro-3′H-spiro[cyclopropane-1,6′-quinazolin]-4′(5′H)-one] | 501 to 5000 |

Results, then the compound that gave them:

| IC50 [nM] | SMILES |
| --- | --- |
| 1 to 500 | O=c1[nH]c(C2=C[C@H](N3CCN(c4ccccc4F)CC3)CC2)nc2c1CC1(CC2)CC1 [Compound 116, (R)-2′-(3-(4-(2-fluorophenyl)piperazin-1-yl)cyclopent-1-en-1-yl)-7′,8′-dihydro-3′H-spiro[cyclopropane-1,6′-quinazolin]-4′(5′H)-one] |
| 1 to 500 | O=c1[nH]c(C2=C[C@H](N3CCN(c4ccccc4)CC3)CC2)nc2c1CC1(CC2)CC1 [Compound 117, (R)-2′-(3-(4-phenylpiperazin-1-yl)cyclopent-1-en-1-yl)-7′,8′-dihydro-3′H-spiro[cyclopropane-1,6′-quinazolin]-4′(5′H)-one] |
| 501 to 5000 | O=c1[nH]c([C@@H]2CC[C@H](N3CCN(c4ccc(Cl)cc4)CC3)C2)nc2c1CC1(CC2)CC1 [Compound 118, 2′-((1R,3S)-3-(4-(4-chlorophenyl)piperazin-1-yl)cyclopentyl)-7′,8′-dihydro-3′H-spiro[cyclopropane-1,6′-quinazolin]-4′(5′H)-one] |
| 1 to 500 | O=c1[nH]c([C@H]2CC[C@H](N3CCN(c4ccc(Cl)cc4)CC3)C2)nc2c1CC1(CC2)CC1 [Compound 119, 2′-((1S,3S)-3-(4-(4-chlorophenyl)piperazin-1-yl)cyclopentyl)-7′,8′-dihydro-3′H-spiro[cyclopropane-1,6′-quinazolin]-4′(5′H)-one] |
| 501 to 5000 | O=c1[nH]c([C@H]2CC[C@@H](N3CCN(c4ccc(Cl)cc4)CC3)C2)nc2c1CC1(CC2)CC1 [Compound 120, 2′-((1S,3R)-3-(4-(4-chlorophenyl)piperazin-1-yl)cyclopentyl)-7′,8′-dihydro-3′H-spiro[cyclopropane-1,6′-quinazolin]-4′(5′H)-one] |
| 5000 to 500000 | O=c1[nH]c([C@@H]2CC[C@@H](N3CCN(c4ccc(Cl)cc4)CC3)C2)nc2c1CC1(CC2)CC1 [Compound 121, 2′-((1R,3R)-3-(4-(4-chlorophenyl)piperazin-1-yl)cyclopentyl)-7′,8′-dihydro-3′H-spiro[cyclopropane-1,6′-quinazolin]-4′(5′H)-one] |
| 1 to 500 | O=c1[nH]c(C2=C[C@H](N3CCN(c4ccccc4Cl)CC3)CC2)nc2c1CC1(CC2)CC1 [Compound 122, (R)-2′-(3-(4-(2-chlorophenyl)piperazin-1-yl)cyclopent-1-en-1-yl)-7′,8′-dihydro-3′H-spiro[cyclopropane-1,6′-quinazolin]-4′(5′H)-one] |
| 1 to 500 | Cc1ccc(F)cc1N1CCN([C@H]2C=C(c3nc4c(c(=O)[nH]3)CC3(CC4)CC3)CC2)CC1 [Compound 123, (R)-2′-(3-(4-(5-fluoro-2-methylphenyl)piperazin-1-yl)cyclopent-1-en-1-yl)-7′,8′-dihydro-3′H-spiro[cyclopropane-1,6′-quinazolin]-4′(5′H)-one] |
| 1 to 500 | Cc1ccc(N2CCN([C@H]3C=C(c4nc5c(c(=O)[nH]4)CC4(CC5)CC4)CC3)CC2)nc1 [Compound 124, (R)-2′-(3-(4-(5-methylpyridin-2-yl)piperazin-1-yl)cyclopent-1-en-1-yl)-7′,8′-dihydro-3′H-spiro[cyclopropane-1,6′-quinazolin]-4′(5′H)-one] |
| 1 to 500 | Cc1ccnc(N2CCN([C@H]3C=C(c4nc5c(c(=O)[nH]4)CC4(CC5)CC4)CC3)CC2)c1 [Compound 125, (R)-2′-(3-(4-(4-methylpyridin-2-yl)piperazin-1-yl)cyclopent-1-en-1-yl)-7′,8′-dihydro-3′H-spiro[cyclopropane-1,6′-quinazolin]-4′(5′H)-one] |
| 501 to 5000 | Cc1cc(F)cc(N2CCN([C@H]3C=C(c4nc5c(c(=O)[nH]4)CC4(CC5)CC4)CC3)CC2)c1 [Compound 126, (R)-2′-(3-(4-(3-fluoro-5-methylphenyl)piperazin-1-yl)cyclopent-1-en-1-yl)-7′,8′-dihydro-3′H-spiro[cyclopropane-1,6′-quinazolin]-4′(5′H)-one] |
| 1 to 500 | N#Cc1ccc(N2CCN([C@H]3C=C(c4nc5c(c(=O)[nH]4)CC4(CC5)CC4)CC3)CC2)cc1F [Compound 127, (R)-2-fluoro-4-(4-(3-(4′-oxo-4′,5′,7′,8′-tetrahydro-3′H-spiro[cyclopropane-1,6′-quinazolin]-2′-yl)cyclopent-2-en-1-yl)piperazin-1-yl)benzonitrile] |
| 5000 to 500000 | O=c1[nH]c(C2=C[C@H](N3CCN(c4ncccn4)CC3)CC2)nc2c1CC1(CC2)CC1 [Compound 128, (R)-2′-(3-(4-(pyrimidin-2-yl)piperazin-1-yl)cyclopent-1-en-1-yl)-7′,8′-dihydro-3′H-spiro[cyclopropane-1,6′-quinazolin]-4′(5′H)-one] |
| 1 to 500 | Cc1ncccc1N1CCN([C@H]2C=C(c3nc4c(c(=O)[nH]3)CC3(CC4)CC3)CC2)CC1 [Compound 129, (R)-2′-(3-(4-(2-methylpyridin-3-yl)piperazin-1-yl)cyclopent-1-en-1-yl)-7′,8′-dihydro-3′H-spiro[cyclopropane-1,6′-quinazolin]-4′(5′H)-one] |
